Experimental data: ChEMBL document CHEMBL5649166, “RIP3 induces apoptosis independent of pronecrotic kinase activity” (Mol Cell, 2014)

Key:
[1] = species on record: Homo sapiens; assay: Inhibition of human CDK2/cyclin A using RB Protein as substrate at 1 uM in presence of 32P-ATP by Hotspot assay relative to control; values are per cent of control
[2] = target: Dual specificity mitogen-activated protein kinase kinase 1 (Homo sapiens) (UniProt Q02750); assay: Residual activity of human MEK1 using ERK2 (K52R) as substrate at 1 uM in presence of 32P-ATP by Hotspot assay relative to control
[3] = target: Mitogen-activated protein kinase 14 (Homo sapiens) (UniProt Q16539); assay: Inhibition of human P38a/MAPK14 using myelin basic protein as substrate at 1 uM in presence of 32P-ATP by Hotspot assay relative to control; values are per cent of control
[4] = target: Serine/threonine-protein kinase WNK2 (Homo sapiens) (UniProt Q9Y3S1); assay: Inhibition of human WNK2 using myelin basic protein as substrate at 1 uM in presence of 32P-ATP by Hotspot assay relative to control; values are per cent of control
[5] = target: T1, Serine/threonine-protein kinase A-Raf (Homo sapiens) (UniProt P10398); assay: Inhibition of human ARAF using MEK1 (K97R) as substrate at 1 uM in presence of 32P-ATP by Hotspot assay relative to control; values are per cent of control
T1 sequence (whole entry): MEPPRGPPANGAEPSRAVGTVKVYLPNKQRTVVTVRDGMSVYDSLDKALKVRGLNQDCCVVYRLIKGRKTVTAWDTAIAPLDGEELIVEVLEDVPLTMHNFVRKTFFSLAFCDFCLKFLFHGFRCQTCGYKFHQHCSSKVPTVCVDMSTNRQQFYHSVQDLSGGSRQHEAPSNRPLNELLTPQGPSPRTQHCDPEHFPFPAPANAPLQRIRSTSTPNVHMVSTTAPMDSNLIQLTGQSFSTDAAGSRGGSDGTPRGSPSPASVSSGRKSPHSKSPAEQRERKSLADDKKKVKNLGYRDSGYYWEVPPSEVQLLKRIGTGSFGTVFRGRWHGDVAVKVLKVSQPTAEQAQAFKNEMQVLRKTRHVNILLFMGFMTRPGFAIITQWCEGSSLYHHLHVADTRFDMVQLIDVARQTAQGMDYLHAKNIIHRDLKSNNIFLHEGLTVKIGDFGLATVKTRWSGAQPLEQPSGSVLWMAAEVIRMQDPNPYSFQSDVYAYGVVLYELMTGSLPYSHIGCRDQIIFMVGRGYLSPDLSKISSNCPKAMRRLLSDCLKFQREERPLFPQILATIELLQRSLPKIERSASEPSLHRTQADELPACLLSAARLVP

[6] = target: BDNF/NT-3 growth factors receptor (Homo sapiens) (UniProt Q16620); assay: Residual activity of human TRKB using poly[Glu:Tyr] (4:1) as substrate at 1 uM in presence of 32P-ATP by Hotspot assay relative to control
[7] = target: T2, Serine/threonine-protein kinase Nek3 (Homo sapiens) (UniProt P51956); assay: Residual activity of human NEK3 using myelin basic protein as substrate at 1 uM in presence of 32P-ATP by Hotspot assay relative to control
T2 sequence (whole entry): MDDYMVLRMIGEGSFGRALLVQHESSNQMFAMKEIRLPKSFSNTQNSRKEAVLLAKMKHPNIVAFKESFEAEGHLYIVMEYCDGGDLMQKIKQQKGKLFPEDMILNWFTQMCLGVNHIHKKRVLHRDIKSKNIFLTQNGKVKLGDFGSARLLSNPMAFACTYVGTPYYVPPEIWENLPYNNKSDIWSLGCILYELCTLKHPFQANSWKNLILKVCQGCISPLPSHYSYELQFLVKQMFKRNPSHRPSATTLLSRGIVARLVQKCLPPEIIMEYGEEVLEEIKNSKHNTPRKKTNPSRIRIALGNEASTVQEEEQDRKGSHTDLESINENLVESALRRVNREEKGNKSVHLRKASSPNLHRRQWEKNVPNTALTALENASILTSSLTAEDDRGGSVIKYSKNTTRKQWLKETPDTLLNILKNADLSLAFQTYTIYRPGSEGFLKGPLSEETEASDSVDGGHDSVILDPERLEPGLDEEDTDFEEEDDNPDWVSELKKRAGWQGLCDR

[8] = target: SRSF protein kinase 2 (Homo sapiens) (UniProt P78362); assay: Inhibition of human SRPK2 using GRSRSRSRSR as substrate at 1 uM in presence of 32P-ATP by Hotspot assay relative to control; values are per cent of control
[9] = target: T3, Serine/threonine-protein kinase Sgk2 (Homo sapiens) (UniProt Q9HBY8); assay: Inhibition of human SGK2 using KGSGSGRPRTSSFAEG as substrate at 1 uM in presence of 32P-ATP by Hotspot assay relative to control; values are per cent of control
T3 sequence (whole entry): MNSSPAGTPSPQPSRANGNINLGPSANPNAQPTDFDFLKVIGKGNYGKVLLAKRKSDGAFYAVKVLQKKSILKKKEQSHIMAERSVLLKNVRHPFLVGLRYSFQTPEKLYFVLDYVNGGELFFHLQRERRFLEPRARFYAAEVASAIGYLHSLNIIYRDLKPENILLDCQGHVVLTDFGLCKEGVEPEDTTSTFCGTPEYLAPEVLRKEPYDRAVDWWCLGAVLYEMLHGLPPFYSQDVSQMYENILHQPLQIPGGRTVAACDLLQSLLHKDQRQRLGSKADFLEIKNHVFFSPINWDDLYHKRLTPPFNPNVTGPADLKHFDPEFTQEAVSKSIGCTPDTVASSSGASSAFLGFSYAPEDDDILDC

[10] = target: SRSF protein kinase 1 (Homo sapiens) (UniProt Q96SB4); assay: Residual activity of human SRPK1 using GRSRSRSRSR as substrate at 1 uM in presence of 32P-ATP by Hotspot assay relative to control
[11] = target: Maternal embryonic leucine zipper kinase (Homo sapiens) (UniProt Q14680); assay: Inhibition of human MELK using KKLNRTLSFAEPG as substrate at 1 uM in presence of 32P-ATP by Hotspot assay relative to control; values are per cent of control
Sequence of Maternal embryonic leucine zipper kinase (Homo sapiens) (Q14680 whole entry, looked up): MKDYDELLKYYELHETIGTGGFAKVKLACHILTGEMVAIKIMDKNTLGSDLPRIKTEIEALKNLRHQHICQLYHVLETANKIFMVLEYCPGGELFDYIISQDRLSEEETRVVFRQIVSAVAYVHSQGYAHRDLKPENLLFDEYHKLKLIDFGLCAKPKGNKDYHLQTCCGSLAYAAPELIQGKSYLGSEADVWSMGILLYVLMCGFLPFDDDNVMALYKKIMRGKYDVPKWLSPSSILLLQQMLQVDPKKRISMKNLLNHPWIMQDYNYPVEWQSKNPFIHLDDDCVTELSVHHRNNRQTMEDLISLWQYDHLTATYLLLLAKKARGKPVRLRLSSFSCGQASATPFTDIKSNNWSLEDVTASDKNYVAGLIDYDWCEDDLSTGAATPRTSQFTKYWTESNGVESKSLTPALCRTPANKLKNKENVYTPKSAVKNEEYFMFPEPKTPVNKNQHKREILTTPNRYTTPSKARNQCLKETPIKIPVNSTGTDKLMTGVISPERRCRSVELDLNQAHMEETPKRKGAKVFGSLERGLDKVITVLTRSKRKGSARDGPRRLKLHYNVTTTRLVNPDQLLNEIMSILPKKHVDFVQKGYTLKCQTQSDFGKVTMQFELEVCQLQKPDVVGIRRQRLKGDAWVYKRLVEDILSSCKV

Sequence of SRSF protein kinase 1 (Homo sapiens) (Q96SB4 whole entry): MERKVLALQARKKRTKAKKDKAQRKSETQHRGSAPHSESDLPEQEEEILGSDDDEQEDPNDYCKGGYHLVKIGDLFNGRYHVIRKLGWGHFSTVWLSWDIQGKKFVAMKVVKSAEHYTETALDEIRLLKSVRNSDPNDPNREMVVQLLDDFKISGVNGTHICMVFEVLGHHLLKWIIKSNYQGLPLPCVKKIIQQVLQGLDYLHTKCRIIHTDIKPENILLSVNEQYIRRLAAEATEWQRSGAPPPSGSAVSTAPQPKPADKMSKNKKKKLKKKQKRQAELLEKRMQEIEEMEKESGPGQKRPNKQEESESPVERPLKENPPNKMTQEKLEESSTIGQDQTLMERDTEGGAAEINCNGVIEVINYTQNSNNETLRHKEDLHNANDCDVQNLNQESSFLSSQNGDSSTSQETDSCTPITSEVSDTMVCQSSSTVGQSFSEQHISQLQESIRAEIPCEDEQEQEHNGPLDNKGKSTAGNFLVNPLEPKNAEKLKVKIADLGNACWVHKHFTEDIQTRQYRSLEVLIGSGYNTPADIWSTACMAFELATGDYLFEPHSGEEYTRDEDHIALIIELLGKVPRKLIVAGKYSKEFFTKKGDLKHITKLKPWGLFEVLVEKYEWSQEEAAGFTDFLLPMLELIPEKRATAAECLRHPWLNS
Sequence of Mitogen-activated protein kinase 14 (Homo sapiens) (Q16539 whole entry): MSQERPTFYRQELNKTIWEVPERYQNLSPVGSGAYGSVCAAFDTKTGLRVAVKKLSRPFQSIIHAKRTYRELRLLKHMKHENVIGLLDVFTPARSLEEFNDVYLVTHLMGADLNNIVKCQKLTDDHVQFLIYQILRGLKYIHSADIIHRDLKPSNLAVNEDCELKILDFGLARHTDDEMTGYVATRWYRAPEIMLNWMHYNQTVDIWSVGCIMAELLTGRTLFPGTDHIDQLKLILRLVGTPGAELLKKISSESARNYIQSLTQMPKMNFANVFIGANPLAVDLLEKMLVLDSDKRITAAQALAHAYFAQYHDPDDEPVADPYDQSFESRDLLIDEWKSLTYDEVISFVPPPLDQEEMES
Sequence of BDNF/NT-3 growth factors receptor (Homo sapiens) (Q16620 32-822 limits assumed): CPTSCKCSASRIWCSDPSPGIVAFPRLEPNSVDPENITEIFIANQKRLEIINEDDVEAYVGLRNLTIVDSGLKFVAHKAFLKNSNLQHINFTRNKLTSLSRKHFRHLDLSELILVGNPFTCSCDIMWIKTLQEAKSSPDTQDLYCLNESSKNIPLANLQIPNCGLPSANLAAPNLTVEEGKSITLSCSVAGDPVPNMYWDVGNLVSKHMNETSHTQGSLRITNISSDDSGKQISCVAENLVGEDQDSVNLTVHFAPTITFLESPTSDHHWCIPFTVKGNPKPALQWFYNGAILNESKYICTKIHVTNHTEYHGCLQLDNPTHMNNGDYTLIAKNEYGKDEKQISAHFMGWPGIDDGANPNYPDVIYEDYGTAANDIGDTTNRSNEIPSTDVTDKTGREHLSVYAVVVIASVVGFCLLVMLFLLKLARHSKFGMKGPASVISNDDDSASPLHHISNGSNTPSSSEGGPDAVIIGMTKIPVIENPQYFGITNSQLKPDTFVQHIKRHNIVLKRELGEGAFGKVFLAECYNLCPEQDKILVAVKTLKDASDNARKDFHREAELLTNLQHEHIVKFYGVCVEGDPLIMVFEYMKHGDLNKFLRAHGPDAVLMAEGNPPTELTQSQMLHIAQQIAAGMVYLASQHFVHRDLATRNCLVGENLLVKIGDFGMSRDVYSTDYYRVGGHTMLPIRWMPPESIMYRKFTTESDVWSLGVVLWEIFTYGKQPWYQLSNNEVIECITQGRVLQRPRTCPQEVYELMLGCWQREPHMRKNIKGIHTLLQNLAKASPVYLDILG
Sequence of Dual specificity mitogen-activated protein kinase kinase 1 (Homo sapiens) (Q02750 whole entry): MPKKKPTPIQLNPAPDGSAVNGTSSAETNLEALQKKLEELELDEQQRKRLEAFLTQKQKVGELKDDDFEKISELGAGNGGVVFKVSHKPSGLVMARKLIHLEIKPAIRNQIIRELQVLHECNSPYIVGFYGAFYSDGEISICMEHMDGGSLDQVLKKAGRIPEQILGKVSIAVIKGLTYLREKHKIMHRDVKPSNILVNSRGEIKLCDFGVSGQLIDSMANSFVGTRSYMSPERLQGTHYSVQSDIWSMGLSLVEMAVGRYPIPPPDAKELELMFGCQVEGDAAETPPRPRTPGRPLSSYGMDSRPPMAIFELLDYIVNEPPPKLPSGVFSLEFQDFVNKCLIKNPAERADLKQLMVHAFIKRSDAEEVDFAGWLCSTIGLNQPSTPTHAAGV
Sequence of SRSF protein kinase 2 (Homo sapiens) (P78362 whole entry, looked up): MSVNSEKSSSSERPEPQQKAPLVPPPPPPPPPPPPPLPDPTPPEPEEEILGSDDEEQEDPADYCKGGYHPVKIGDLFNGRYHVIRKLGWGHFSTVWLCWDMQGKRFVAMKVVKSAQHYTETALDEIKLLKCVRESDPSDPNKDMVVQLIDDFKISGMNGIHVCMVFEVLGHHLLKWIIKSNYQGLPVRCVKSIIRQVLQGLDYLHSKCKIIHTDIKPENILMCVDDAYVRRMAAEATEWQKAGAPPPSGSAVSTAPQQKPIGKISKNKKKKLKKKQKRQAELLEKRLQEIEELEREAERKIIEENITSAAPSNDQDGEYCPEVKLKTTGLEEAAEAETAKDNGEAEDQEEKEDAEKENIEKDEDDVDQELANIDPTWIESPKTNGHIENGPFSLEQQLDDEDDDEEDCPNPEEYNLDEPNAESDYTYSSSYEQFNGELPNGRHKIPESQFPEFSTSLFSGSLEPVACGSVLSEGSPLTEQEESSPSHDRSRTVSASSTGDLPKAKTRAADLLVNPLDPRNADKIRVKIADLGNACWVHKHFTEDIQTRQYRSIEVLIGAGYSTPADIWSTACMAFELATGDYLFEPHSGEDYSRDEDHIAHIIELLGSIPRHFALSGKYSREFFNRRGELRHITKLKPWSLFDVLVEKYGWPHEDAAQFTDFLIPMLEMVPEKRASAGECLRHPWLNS

Structure (SMILES): CC(C)S(=O)(=O)c1ccc2nccc(Nc3ccc4scnc4c3)c2c1
- residual activity [1]: 97.2%
- residual activity [2]: 102%
- residual activity [3]: 91.5%
- residual activity [4]: 103%
- residual activity [5]: 45.7%
- residual activity [6]: 86.7%
- residual activity [7]: 92%
- residual activity [8]: 94%
- residual activity [9]: 99.9%
- residual activity [10]: 104%
- residual activity [11]: 96.5%

Structure (SMILES): Cc1cc(-c2cnc(N)c3c(-c4ccc5scnc5c4)csc23)n(C)n1
- residual activity [1]: 86%
- residual activity [2]: 59.7%
- residual activity [3]: 40.9%
- residual activity [4]: 98.9%
- residual activity [5]: 65.3%
- residual activity [6]: 106%
- residual activity [7]: 99.7%
- residual activity [8]: 96.2%
- residual activity [9]: 87.7%
- residual activity [10]: 95.3%
- residual activity [11]: 88.2%

Structure (SMILES): CNC(=O)c1ccc2c(c1)ncn2-c1ccc(CC(=O)OC(C)(C)C)cc1
- residual activity [1]: 101%
- residual activity [2]: 86.8%
- residual activity [3]: 95.8%
- residual activity [4]: 97.9%
- residual activity [5]: 93.2%
- residual activity [6]: 97.8%
- residual activity [7]: 91.3%
- residual activity [8]: 98.5%
- residual activity [9]: 102%
- residual activity [10]: 112%
- residual activity [11]: 105%
